Assay results: patent US12312333B2, “SK channel positive allosteric modulators” (Chapman University, priority 2021, dated 2025)

Assays:
Assay type in all cases: cell-based
[1] = target: T1, human KCa3.1 channel (Homo sapiens, UniProt O15554+P0DP23); assay: Inside-out patch-clamp on KCa3.1 channels expressed in HEK293 cells; details: for response of KCa3.1 channels: inside-out patch; for Emax: normalized to 10 μM Ca2+
T1 construct: expressed in transfected cells; host or cells: HEK293
Experimental: (§1) The two newly synthesized compounds, 2o and 2q, were tested to determine whether they retained their subtype-selectivity. Neither 2o (FIG. 5A) nor 2q (FIG. 5B) elicited significant responses from the human KCa2.1 channel expressed in HEK293 cells. When compared with the responses from KCa2.2a channels to these two compounds, the differences became even more apparent (FIG. 5C), with the Emax values on KCa2.2a channels at ˜90%, whereas the Emax values on KCa2.1 channels were at ˜0% (FIG. 5D).
(§2) The effect of newly synthesized compounds on the KCa2.x/KCa3.1 channels was investigated as previously described (Nam, Y. W.; et al, Acta Physiol (Oxf) 2020, e13552; Nam, Y. W.; et al. Scientific reports 2018, 8 (1), 10749). Briefly, the rat KCa2.2a, human KCa2.1, human KCa2.3 or human KCa3.1 channels cDNA constructs were either generated in-house or through molecular cloning services (Genscript). The channel cDNAs, along with CaM and GFP, at a ratio of 7:4:2 (ORF ratios), were transfected into HEK293 cells by the calcium-phosphate method. KCa currents were recorded 1-2 days after transfection, with an Axon200B amplifier (Molecular Devices) at room temperature. The resistance of the patch electrodes ranged from 3-5 MΩ. The pipette solution contained (in mM): 140 KCl, 10 Hepes (pH 7.4), 1 MgSO4. The bath solution containing (in mM): 140 KCl, 10 Hepes (pH 7.2), 1 EGTA, 0.1 Dibromo-BAPTA, and 1 HEDTA was mixed with Ca^2+ to obtain the desired free Ca^2+ concentrations, calculated using the software by Chris Patton of Stanford University (https://somapp.ucdmc.ucdavis.edu/pharmacology/bers/maxchelator/webmaxc/webmaxcS.htm). […] Briefly, a standard curve was generated using the Ca^2+ buffers from the kit and a fluorescence Ca^2+ indicator. Then, the Ca^2+ concentrations of the bath solution were determined through interpolation on the standard curve.
(§3) High resistance seals (>1 GΩ) were formed before inside-out patches were obtained. […] Currents were recorded by repetitive 1-s-voltage ramps from −100 mV to +100 mV from a holding potential of 0 mV. […]
(§4) To measure the effect of CyPPA (Alomone Labs) and newly synthesized compounds, the intracellular face was exposed to bath solutions with 0.15 μM Ca^2+. One minute after switching of bath solutions, ten sweeps with a 1-s interval were recorded at a series of concentrations of compound in the presence of 0.15 μM Ca^2+. The maximal KCa2.x/KCa3.1 current in response to 10 μM Ca^2+ was then recorded.
(§5) Patch-clamp recordings were analyzed using Clampfit 10.5 (Molecular Devices LLC) and concentration-response curves were analyzed in GraphPad Prism 9.0.2 (GraphPad Software Inc.). […] EC50 values and Hill coefficients were determined by fitting the data points to a standard concentration-response curve (Y=100/(1+(X/EC50)^−Hill)). […]

[2] = target: T2, rat KCa2.2a (UniProt P0DP23+P70604); assay: Inside-out patch-clamp potentiation of KCa2.2a channels expressed in HEK293 cells; details: for EC50: inside-out patch, HEK293, 0.15 μM Ca2+, current at −90 mV, read-out: EC50 (mean ± SEM, μM) on potentiating KCa2.2a channels; for fold higher potency on KCa2.2a channels compared to CyPPA: ratio of EC50 values vs CyPPA; for KCa2.2a/KCa2.3 subtype selectivity: vs KCa2.1 and KCa3.1
T2 construct: expressed in transfected cells; host or cells: HEK293
Experimental: The impact of adding one substituent group at C4 of the cyclohexane moiety of CyPPA with either electron donating (OH (2a), NH2 (2b), CH2OH (2c), and OCH3 (2d)) or electron-withdrawing groups (F (2e) and NO2 (2f)) was explored. The potency of the newly synthesized compounds compared to the template CyPPA was measured via inside-out patch clamp electrophysiology recordings with KCa2.2a channels heterologously expressed in HEK293 cells (FIG. 1A). […] The responses induced by 10 μM Ca^2+ are considered the maximal currents of the KCa2.2a channels. To evaluate the efficacy (Emax) of compounds on KCa2.2a channels, the current amplitudes at −90 mV in response to the maximal concentration of compounds were normalized to that obtained at 10 μM Ca^2+ (I/Imax (%), FIG. 1C).
The effect of newly synthesized compounds on the KCa2.x/KCa3.1 channels was investigated as previously described (Nam, Y. W.; et al, Acta Physiol (Oxf) 2020, e13552; Nam, Y. W.; et al. Scientific reports 2018, 8 (1), 10749). Briefly, the rat KCa2.2a, human KCa2.1, human KCa2.3 or human KCa3.1 channels cDNA constructs were either generated in-house or through molecular cloning services (Genscript). The channel cDNAs, along with CaM and GFP, at a ratio of 7:4:2 (ORF ratios), were transfected into HEK293 cells by the calcium-phosphate method. KCa currents were recorded 1-2 days after transfection, with an Axon200B amplifier (Molecular Devices) at room temperature. The resistance of the patch electrodes ranged from 3-5 MΩ. The pipette solution contained (in mM): 140 KCl, 10 Hepes (pH 7.4), 1 MgSO4. The bath solution containing (in mM): 140 KCl, 10 Hepes (pH 7.2), 1 EGTA, 0.1 Dibromo-BAPTA, and 1 HEDTA was mixed with Ca^2+ to obtain the desired free Ca^2+ concentrations, calculated using the software by Chris Patton of Stanford University (https://somapp.ucdmc.ucdavis.edu/pharmacology/bers/maxchelator/webmaxc/webmaxcS.htm). The Ca^2+ concentrations were verified using a Ca^2+ calibration buffer kit (Thermo Fisher Scientific). Briefly, a standard curve was generated using the Ca^2+ buffers from the kit and a fluorescence Ca^2+ indicator. Then, the Ca^2+ concentrations of the bath solution were determined through interpolation on the standard curve.
High resistance seals (>1 GΩ) were formed before inside-out patches were obtained. The seal resistance of inside-out patches was >1 GΩ, when the intracellular face was initially exposed to a zero-Ca^2+ bath solution. Currents were recorded by repetitive 1-s-voltage ramps from −100 mV to +100 mV from a holding potential of 0 mV. The currents were filtered at 2 kHz and digitized at a sampling frequency of 10 kHz. At the end of experiment, the integrity of the patch was examined by switching the bath solution back to the zero-Ca^2+ buffer. Data from patches, which maintained the seal resistance (>1 GΩ) after solution changes, were used for further analysis.
as §4
Patch-clamp recordings were analyzed using Clampfit 10.5 (Molecular Devices LLC) and concentration-response curves were analyzed in GraphPad Prism 9.0.2 (GraphPad Software Inc.). To construct the concentration-dependent potentiation of channel activities by compound, the current amplitudes at −90 mV in response to various concentrations of the compound were normalized to that obtained at a maximal concentration of compound. The normalized currents were plotted as a function of the concentrations of the compound. EC50 values and Hill coefficients were determined by fitting the data points to a standard concentration-response curve (Y=100/(1+(X/EC50)^−Hill)). […]

[3] = target: T3, human KCa2.1 channel (Homo sapiens, UniProt P0DP23+Q92952); assay: Inside-out patch-clamp on KCa2.1 channels expressed in HEK293 cells; details: for response of KCa2.1 channels: inside-out patch; for Emax: normalized to 10 μM Ca2+
T3 construct: expressed in transfected cells; host or cells: HEK293
Experimental: as §1, §2, §3, §4, §5

Cc1cc(Nc2ccc(F)c(Cl)c2)nc(-n2nc(C)cc2C)n1 [Compound 2o, N-(3-Chloro-4-fluorophenyl)-2-(3,5-dimethyl-1H-pyrazol-1-yl)-6-methyl-pyrimidin-4-amine]
response of KCa3.1 channels [1]: mostly insensitive
Emax [1]: 26.1 ± 7.67%
EC50 [2]: 0.99 ± 0.079 µM
fold higher potency on KCa2.2a channels compared to CyPPA [2]: ~7 fold
KCa2.2a/KCa2.3 subtype selectivity [2]: retained the KCa2.2a/KCa2.3 subtype selectivity
response of KCa2.1 channels [3]: Lack of response
Emax [3]: ~0%

Cc1cc(Nc2cc(Cl)ccc2F)nc(-n2nc(C)cc2C)n1 [Compound 2q, N-(5-Chloro-2-fluorophenyl)-2-(3,5-dimethyl-1H-pyrazol-1-yl)-6-methylpyrimidin-4-amine]
response of KCa3.1 channels [1]: mostly insensitive
Emax [1]: -0.79 ± 1.19%
EC50 [2]: 0.64 ± 0.051 µM
fold higher potency on KCa2.2a channels compared to CyPPA [2]: ~10 fold
KCa2.2a/KCa2.3 subtype selectivity [2]: retained the KCa2.2a/KCa2.3 subtype selectivity
response of KCa2.1 channels [3]: Lack of response
Emax [3]: ~0%
